The numbers were not newly measured in patent US8053002B2, “Medicinal herbal composition for treating infection” (priority 2005, dated 2011), which cites them from elsewhere.

In series [1] the test system is herpes simplex virus (HSV-2).
In series [2] the target is HIV-1 reverse transcriptase (Human immunodeficiency virus type 1 group M subtype B, UniProt P03366).

Regarding `O=C(O[C@@H]1O[C@@H]2COC(=O)c3cc(O)c(O)c(O)c3-c3c(cc(O)c(O)c3O)C(=O)O[C@H]2[C@H](OC(=O)c2cc(O)c(O)c(O)c2)[C@H]1OC(=O)c1cc(O)c(O)c(O)c1)c1cc(O)c(O)c(O)c1` [Eugeniin], in series [1], the “anti-herpes simplex virus (HSV-2) activity in vitro” value is “exhibited anti-herpes simplex virus (HSV-2) activity”.

On to `COCc1cc2cc(OC)c(OC)cc2c(-c2ccc3c(c2)OCO3)c1C=O` [phyllamycin B], for which the “effect on HIV-1 reverse transcriptase activity” value in series [2] was “inhibitory effect”. Take `O=c1cc(-c2ccc(O)cc2)oc2cc(O)cc(O)c12` [5,7,4-truhydroxyflavone]: the anti-influenza virus activity entry in the series on influenza virus was “anti-influenza virus activity”. For the molecule Prunellin, the “minimum inhibition concentration against HIV-1 in vitro” value with HIV-1 is 2.2 µg/mL. Consider `COC(=O)c1cc(O)c(O)c(O)c1` [methyl gallate], for which the “anti-herpes simplex virus (HSV-2) activity in vitro” value in series [1] was “exhibited anti-herpes simplex virus (HSV-2) activity”. Regarding `COc1cc2cc3c(c(-c4ccc5c(c4)OCO5)c2cc1OC)COC3=O` [retrojusticiden B], the “effect on HIV-1 reverse transcriptase activity” value in series [2] was “inhibitory effect”.
